Test results taken from article PMC2775485 (Journal of medicinal chemistry, 2009).
Values belong to the molecule of their own block, whether it stands above or below them.

Columns and labels:
hMC1R [1] = target: T1, hMC1R (Homo sapiens, UniProt Q01726); test: Adenylate cyclase; type: cell-based; conditions: for functional class at hMC1R: class by maximal cAMP level relative to MTII; for fold drop in potency: hMC1R, Ac-NDP-γ-MSH-NH2 series, comparator implied: peptide 11
hMC3R = hMC3R (Homo sapiens, UniProt P41968); test: Competition binding on whole HEK293 cells, 125I-[Nle4,DPhe7]-α-MSH; conditions: concentration of peptide at 50% specific binding, N=4; NB: No Binding at 10^-5 M
hMC3R, sequence (P41968 whole entry): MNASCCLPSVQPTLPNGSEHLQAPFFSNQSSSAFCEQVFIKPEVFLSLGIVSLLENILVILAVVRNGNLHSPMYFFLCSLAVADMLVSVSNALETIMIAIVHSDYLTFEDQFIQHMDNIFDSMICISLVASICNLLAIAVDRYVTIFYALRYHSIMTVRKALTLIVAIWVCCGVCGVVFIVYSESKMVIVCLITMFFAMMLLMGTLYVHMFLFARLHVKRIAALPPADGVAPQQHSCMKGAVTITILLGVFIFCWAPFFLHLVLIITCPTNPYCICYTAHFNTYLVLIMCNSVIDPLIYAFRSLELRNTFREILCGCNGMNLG

hMC4R [2] = target: T2, hMC4R (Homo sapiens, UniProt P32245); test: as above; conditions: for hMC4R IC50 / IC50: concentration of peptide at 50% specific binding, N=4, NB: No Binding at 10^-5 M; for IC50: read-out: hMC4R IC50
T2 sequence (P32245 whole entry): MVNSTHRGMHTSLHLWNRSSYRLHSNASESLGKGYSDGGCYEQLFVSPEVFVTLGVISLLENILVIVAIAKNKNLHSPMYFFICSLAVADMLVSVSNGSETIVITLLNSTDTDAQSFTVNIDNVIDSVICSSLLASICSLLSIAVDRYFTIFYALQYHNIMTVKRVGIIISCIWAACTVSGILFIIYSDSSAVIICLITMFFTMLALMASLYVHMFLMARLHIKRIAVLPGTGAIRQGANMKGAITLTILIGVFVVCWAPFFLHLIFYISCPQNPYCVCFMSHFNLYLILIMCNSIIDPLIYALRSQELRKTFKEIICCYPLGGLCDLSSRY

hMC1R [3] = target: T1, hMC1R; test: as above; conditions: Ac-NDP-γ-MSH-NH2 series, comparator implied: peptide 11
[4] = target: human melanocortin 1 receptor (human) (UniProt Q01726)
human melanocortin 1 receptor (human), sequence (Q01726 whole entry): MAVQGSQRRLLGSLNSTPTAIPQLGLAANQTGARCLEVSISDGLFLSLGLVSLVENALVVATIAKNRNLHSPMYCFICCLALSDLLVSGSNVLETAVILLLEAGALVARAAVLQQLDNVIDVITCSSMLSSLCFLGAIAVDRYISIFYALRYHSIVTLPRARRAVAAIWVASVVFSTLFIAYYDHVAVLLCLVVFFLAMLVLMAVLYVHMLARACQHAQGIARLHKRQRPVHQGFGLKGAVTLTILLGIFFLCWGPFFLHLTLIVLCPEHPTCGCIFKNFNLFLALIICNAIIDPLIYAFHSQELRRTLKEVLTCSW

[5] = target: human melanocortin 3 receptor (human) (UniProt P41968)
human melanocortin 3 receptor (human), sequence (P41968 whole entry): as the sequence (P41968 whole entry) above

hMC4R [6] = target: T2, hMC4R; test: Adenylate cyclase; type: cell-based; conditions: class by maximal cAMP level relative to MTII
[7] = target: human melanocortin 4 receptor (human) (UniProt P32245)
human melanocortin 4 receptor (human), sequence (P32245 whole entry): as the sequence (P32245 whole entry) above

[8] = target: human melanocortin 5 receptor (human) (UniProt P33032)
human melanocortin 5 receptor (human), sequence (P33032 whole entry): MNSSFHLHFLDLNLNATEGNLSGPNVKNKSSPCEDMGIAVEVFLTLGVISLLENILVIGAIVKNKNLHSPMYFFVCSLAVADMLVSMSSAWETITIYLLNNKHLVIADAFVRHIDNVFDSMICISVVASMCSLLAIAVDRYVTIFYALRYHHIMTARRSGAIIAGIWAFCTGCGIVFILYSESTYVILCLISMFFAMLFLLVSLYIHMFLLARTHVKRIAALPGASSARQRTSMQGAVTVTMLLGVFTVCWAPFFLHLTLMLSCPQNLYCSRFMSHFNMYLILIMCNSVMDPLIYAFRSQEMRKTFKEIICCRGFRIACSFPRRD

[9] = target: human melanocortin 1 receptor (human) (UniProt Q01726); test: radioligand binding
hMC4R [10] = target: T2, hMC4R; conditions: cited from earlier work

T1 sequence (Q01726 whole entry): as the sequence (Q01726 whole entry) above

Molecule: CCCC[C@H](NC(C)=O)C(=O)N[C@H]1CC(=O)NCCCC[C@@H](C(N)=O)NC(=O)[C@H](Cc2c[nH]c3ccccc23)NC(=O)[C@@H]2CCCN2C(=O)[C@@H](Cc2ccccc2)NC(=O)[C@H](Cc2c[nH]cn2)NC1=O [Peptide 1]
functional class at hMC1R (hMC1R [1]): partial agonist (triggers a maximal cAMP level that is 20%-80% of MTII triggered maximal cAMP response)

Molecule: CCCC[C@H](NC(C)=O)C(=O)N[C@H]1CC(=O)NCCCC[C@@H](C(N)=O)NC(=O)[C@H](Cc2c[nH]c3ccccc23)NC(=O)[C@H](CCCNC(=N)N)NC(=O)[C@@H](Cc2ccccc2)NC(=O)[C@@H]2C[C@H](NC(=N)N)CN2C1=O [Peptide 5]
hMC3R IC50 (hMC3R): single-digit nanomolar range
hMC4R IC50 (hMC4R [2]): single-digit nanomolar range

Molecule: CCCC[C@H](NC(C)=O)C(=O)N[C@H]1CC(=O)NCCCC[C@@H](C(N)=O)NC(=O)[C@H](Cc2c[nH]c3ccccc23)NC(=O)[C@@H]2CCCN2C(=O)[C@@H](Cc2ccc3ccccc3c2)NC(=O)[C@H](Cc2c[nH]cn2)NC1=O [Peptide 6]
functional class at hMC1R (hMC1R [1]): partial agonist (triggers a maximal cAMP level that is 20%-80% of MTII triggered maximal cAMP response)

Molecule: CCCC[C@H](NC(=O)[C@@H](NC(=O)[C@H](Cc1ccc(O)cc1)NC(C)=O)C(C)C)C(=O)NCC(=O)N[C@@H](Cc1cnc[nH]1)C(=O)N[C@H](Cc1ccccc1)C(=O)N1C[C@H](NC(=N)N)C[C@H]1C(=O)N[C@@H](Cc1c[nH]c2ccccc12)C(=O)N[C@@H](CC(=O)O)C(=O)N[C@@H](CCCNC(=N)N)C(=O)N[C@@H](Cc1ccccc1)C(=O)NCC(N)=O [Peptide 12]
fold drop in binding affinity (hMC1R [3]): 4-5 fold
IC50 (hMC4R [2]): > 10000 nM
functional class at hMC1R (hMC1R [1]): full agonist (80%-100% level of MT II)
fold drop in potency (hMC1R [1]): more than 11 fold

Molecule: CCCC[C@H](NC(=O)[C@@H](NC(=O)[C@H](Cc1ccc(O)cc1)NC(C)=O)C(C)C)C(=O)NCC(=O)N[C@@H](Cc1c[nH]cn1)C(=O)N[C@H](Cc1ccccc1)C(=O)N1CCC[C@H]1C(=O)N[C@@H](Cc1c[nH]c2ccccc12)C(=O)N[C@@H](CC(=O)O)C(=O)N[C@@H](CCCNC(=N)N)C(=O)N[C@@H](Cc1ccccc1)C(=O)NCC(N)=O [Peptide 11]
binding affinity at the hMC4R, fold lower/weaker than peptide 1 (hMC4R [2]; relative to control peptide 1): 25 fold
binding affinity at the hMC4R, fold lower than peptide 6 (hMC4R [2]; relative to peptide 6): 8 fold
functional class at hMC1R (hMC1R [1]): partial agonist (triggers a maximal cAMP level that is 20%-80% of MTII triggered maximal cAMP response)
functional class at hMC4R (hMC4R [6]): partial agonist (triggers a maximal cAMP level that is 20%-80% of MTII triggered maximal cAMP response)

Molecule: CCCC[C@H](NC(C)=O)C(=O)N[C@H]1CC(=O)NCCCC[C@@H](C(N)=O)NC(=O)[C@H](Cc2c[nH]c3ccccc23)NC(=O)[C@H](CCCNC(=N)N)NC(=O)[C@@H](Cc2ccccc2)NC(=O)[C@@H]2C[C@@H](NC(=N)N)CN2C1=O [Peptide 4]
hMC3R IC50 (hMC3R): single-digit nanomolar range
hMC4R IC50 (hMC4R [2]): single-digit nanomolar range

Molecule: CCCC[C@H](NC(C)=O)C(=O)N[C@H]1CC(=O)NCCCC[C@@H](C(N)=O)NC(=O)[C@H](Cc2c[nH]c3ccccc23)NC(=O)[C@@H]2C[C@H](NC(=N)N)CN2C(=O)[C@@H](Cc2ccc3ccccc3c2)NC(=O)[C@H](Cc2c[nH]cn2)NC1=O [Peptide 8]
functional class at hMC1R (hMC1R [1]): full agonist (80%-100% level of MT II)

B1: hASIP: Endogenous antagonist of the hMCRs, agouti signaling protein (protein, UniProt P42127 23-132, looked up)
Agouti-signaling protein: HLPPEEKLRDDRSLRSNSSVNLLDVPSVSIVALNKKSKQIGRKAAEKKRSSKKEASMKKVVRPRTPLSAPCVATRNSCKPPAPACCDPCASCQCRFFRSACSCRVLSLNC
selectivity hMC4R/hMC3R (hMC4R [10]): 46 fold

More lines, now with the values ahead:

fold drop in binding affinity (hMC1R [3]): 4-5 fold
IC50 (hMC4R [2]): > 10000 nM
functional class at hMC1R (hMC1R [1]): full agonist (80%-100% level of MT II)
fold drop in potency (hMC1R [1]): more than 11 fold
Molecule: CCCC[C@H](NC(=O)[C@@H](NC(=O)[C@H](Cc1ccc(O)cc1)NC(C)=O)C(C)C)C(=O)NCC(=O)N[C@@H](Cc1cnc[nH]1)C(=O)N[C@H](Cc1ccccc1)C(=O)N1C[C@@H](NC(=N)N)C[C@H]1C(=O)N[C@@H](Cc1c[nH]c2ccccc12)C(=O)N[C@@H](CC(=O)O)C(=O)N[C@@H](CCCNC(=N)N)C(=O)N[C@@H](Cc1ccccc1)C(=O)NCC(N)=O [Peptide 13]

cAMP accumulation in receptor-transfected HEK293 cells, EC50 [4]: 620 nM
cAMP accumulation, %max of MTII [4]: 25%
cAMP accumulation in receptor-transfected HEK293 cells, EC50 [5]: 130 nM
Molecule: peptide 9 (SHU9119 with His6 replaced by 4-guanidinyl-Pro)

cAMP accumulation in receptor-transfected HEK293 cells, EC50 [4]: 1700 nM
cAMP accumulation, %max of MTII [4]: 90%
cAMP accumulation, %max of MTII (EC50 cell also prints 0) [5]: 0%
cAMP accumulation in receptor-transfected HEK293 cells, EC50 [7]: 1400 nM
cAMP accumulation in receptor-transfected HEK293 cells, EC50 [8]: 85 nM
cAMP accumulation, %max of MTII [8]: 52%
IC50 [9]: 1.2 nM
Molecule: peptide 10 (SHU9119 with His6 replaced by 4-guanidinyl-Pro)

cAMP accumulation in receptor-transfected HEK293 cells, EC50 [4]: > 1000 nM
cAMP accumulation, %max of MTII [4]: 75%
Molecule: peptide 1 (MTII with Arg8 replaced by Pro)
